Measured values taken from ChEMBL document CHEMBL6083262, “Stereorandomized Oncocins with Preserved Ribosome Binding and Antibacterial Activity” (J Med Chem, 2024).
Values after ≈ are worked out from the molar mass of the structure shown. Active and inactive are the calls of the source. The rule behind the calls is not given here. Non-standard residues stand in square brackets, D forms with d. Residues, ends and D or L forms follow the SMILES beside them. ξ: configuration not given here. ξY = NC(Cc1ccc(O)cc1)C(=O)O; ξR = N=C(N)NCCCC(N)C(=O)O; ξN = NC(=O)CC(N)C(=O)O; ξI = CCC(C)C(N)C(=O)O; ξP = O=C(O)C1CCCN1

Assays:
[1] = system: Escherichia coli; test: Bacteriostatic activity against Escherichia coli assessed as membrane perturbation at 8 times MIC in full muller hinton medium by transmission electron microscopic analysis; assay type: functional, organism-based
[2] = system: Klebsiella pneumoniae; test: Bacteriostatic activity against Klebsiella pneumoniae assessed as small intracellular vesicles at 8 times MIC in full muller hinton medium by transmission electron microscopic analysis; assay type: functional, organism-based
[3] = system: Escherichia coli; test: Bacteriostatic activity against Escherichia coli assessed as detachment of inner membrane from outer membrane by measuring a large void at 8 times MIC in full muller hinton medium by transmission electron microscopic analysis; assay type: functional, organism-based
[4] = system: Klebsiella pneumoniae; test: Bacteriostatic activity against Klebsiella pneumoniae at 8 times MIC in full muller hinton medium by Time-kill assay; assay type: functional, organism-based
[5] = system: Klebsiella pneumoniae; test: Antimicrobial activity against Klebsiella pneumoniae NCTC 418 incubated for 16 to 20 hrs in full muller hinton medium by broth microdilution method; assay type: functional; conditions: time 16-20 hrs
[6] = system: Escherichia coli; test: Bacteriostatic activity against Escherichia coli assessed as small intracellular vesicles at 8 times MIC in full muller hinton medium by transmission electron microscopic analysis; assay type: functional, organism-based
[7] = system: Klebsiella pneumoniae; test: Bacteriostatic activity against Klebsiella pneumoniae assessed as membrane perturbation at 8 times MIC in full muller hinton medium by transmission electron microscopic analysis; assay type: functional, organism-based
[8] = system: Pseudomonas aeruginosa; test: Antimicrobial activity against Pseudomonas aeruginosa PAO1 incubated for 16 to 20 hrs in full muller hinton medium by broth microdilution method; assay type: functional; conditions: time 16-20 hrs
[9] = Hemolytic activity in human RBC incubated for 4 hrs; assay type: toxicity, cell-based; conditions: erythrocyte
[10] = system: Escherichia coli; test: Bacteriostatic activity against Escherichia coli at 8 times MIC in full muller hinton medium by Time-kill assay; assay type: functional, organism-based
[11] = system: Klebsiella pneumoniae; test: Bacteriostatic activity against Klebsiella pneumoniae assessed as detachment of inner membrane from outer membrane by measuring a large void at 8 times MIC in full muller hinton medium by transmission electron microscopic analysis; assay type: functional, organism-based
[12] = system: Acinetobacter baumannii; test: Antimicrobial activity against Acinetobacter baumannii ATCC 19606 incubated for 16 to 20 hrs in full muller hinton medium by broth microdilution method; assay type: functional; conditions: time 16-20 hrs
[13] = system: Staphylococcus aureus; test: Antimicrobial activity against methicillin-resistant Staphylococcus aureus COL incubated for 16 to 20 hrs in full muller hinton medium by broth microdilution method; assay type: functional; conditions: time 16-20 hrs
[14] = system: Pseudomonas aeruginosa; test: Antibacterial activity against multidrug-resistant Pseudomonas aeruginosa clinical isolate ZEM-1A incubated for 16 to 20 hrs in full muller hinton medium by broth microdilution method; assay type: functional; conditions: time 16-20 hrs
[15] = system: Pseudomonas aeruginosa; test: Antibacterial activity against multidrug-resistant Pseudomonas aeruginosa PA14 2P4 harboring pmrB mutant incubated for 16 to 20 hrs in full muller hinton medium by broth microdilution method; assay type: functional; conditions: time 16-20 hrs
[16] = system: Pseudomonas aeruginosa; test: Antibacterial activity against multidrug-resistant Pseudomonas aeruginosa PA14 4.18 harboring pmrB mutant incubated for 16 to 20 hrs in full muller hinton medium by broth microdilution method; assay type: functional; conditions: time 16-20 hrs
[17] = system: Pseudomonas aeruginosa; test: Antibacterial activity against multidrug-resistant Pseudomonas aeruginosa clinical isolate ZEM9A incubated for 16 to 20 hrs in full muller hinton medium by broth microdilution method; assay type: functional; conditions: time 16-20 hrs
[18] = system: rRNA; test: Binding affinity to [gamma32 P-ATP] labeled Escherichia coli MG1655 23S ribosomal RNA (5-CCCTTGGGACCTACTTC-3') at U2506 position assessed as increase in band intensity at 1 uM incubated for 2.5 hrs in full muller hinton medium by CMCT based gel electrophoresis; assay type: nucleic-acid assay
[19] = system: Pseudomonas aeruginosa; test: Antibacterial activity against multidrug-resistant Pseudomonas aeruginosa PA14 4.13 harboring phoQ mutant incubated for 16 to 20 hrs in full muller hinton medium by broth microdilution method; assay type: functional; conditions: time 16-20 hrs
[20] = system: Pseudomonas aeruginosa; test: Antibacterial activity against multidrug-resistant Pseudomonas aeruginosa PA14 incubated for 16 to 20 hrs in full muller hinton medium by broth microdilution method; assay type: functional; conditions: time 16-20 hrs
[21] = system: Staphylococcus aureus; test: Antimicrobial activity against methicillin-resistant Staphylococcus aureus COL incubated for 16 to 20 hrs in 12.5 % muller hinton medium by broth microdilution method; assay type: functional; conditions: time 16-20 hrs
[22] = system: Escherichia coli; test: Antimicrobial activity against Escherichia coli W3110 incubated for 16 to 20 hrs in 12.5 % muller hinton medium by broth microdilution method; assay type: functional; conditions: time 16-20 hrs
[23] = system: Escherichia coli; test: Antimicrobial activity against Escherichia coli W3110 incubated for 16 to 20 hrs in full muller hinton medium by broth microdilution method; assay type: functional; conditions: time 16-20 hrs
[24] = system: Pseudomonas aeruginosa; test: Antimicrobial activity against Pseudomonas aeruginosa PAO1 incubated for 16 to 20 hrs in 12.5 % muller hinton medium by broth microdilution method; assay type: functional; conditions: time 16-20 hrs
[25] = system: Klebsiella pneumoniae; test: Antimicrobial activity against Klebsiella pneumoniae NCTC 418 incubated for 16 to 20 hrs in 12.5 % muller hinton medium by broth microdilution method; assay type: functional; conditions: time 16-20 hrs

Row | Molecule | Activity [1] | Activity [2] | Activity [3] | Activity [4] | MIC [5] [µg/mL] | Activity [6] | Activity [7] | MIC [8] [µg/mL] | MHC [9] [µg/mL] | Activity [10] | Activity [11] | MIC [12] [µg/mL] | MIC [13] [µg/mL] | MIC [15] [µg/mL] | MIC [17] [µg/mL] | MIC [20] [µg/mL] | MIC [24] [µg/mL] | MIC [25] [µg/mL] | further results
1 | CC(C)C[C@H](NC(=O)[C@H](CC(C)C)NC(=O)[C@H](CC(C)C)NC(=O)[C@@H](CCCCN)NC(=O)[C@H](CC(C)C)NC(=O)[C@H](CC(C)C)NC(=O)[C@@H](CCCCN)NC(=O)[C@H](CC(C)C)NC(=O)[C@H](CC(C)C)NC(=O)[C@@H](CCCCN)NC(=O)[C@H](N)CCCCN)C(N)=O (H-[dK][dK]LL[dK]LL[dK]LLL-NH2) | Active; Few Membrane Perturbation Observed | Active | Active | Active | 8 (≈ 6.05 µM) | Active | Active; Few Membrane Perturbation Observed | 8 (≈ 6.05 µM) | 1000 | Active | Active | 2.4 (≈ 1.82 µM) |  |  |  |  |  |  | 
2 | H-VDKPPYLPRPRPPRRIYNR-NH2 [ONCOCIN] | Active; Few Membrane Perturbation Observed | Active | Active | Active |  | Active | Active; Few Membrane Perturbation Observed | > 64 | > 1000 | Active | Active |  | > 64 | > 64 | > 64 | > 64 |  |  | MIC [14]: > 64 µg/mL; MIC [16]: > 64 µg/mL; Activity [18]: Active; MIC [19]: > 64 µg/mL
3 | CCC(C)C(NC(=O)C(CCCNC(=N)N)NC(=O)C(CCCNC(=N)N)NC(=O)[C@@H]1CCCN1C(=O)[C@@H]1CCCN1C(=O)[C@H](CCCNC(=N)N)NC(=O)[C@@H]1CCCN1C(=O)[C@H](CCCNC(=N)N)NC(=O)[C@@H]1CCCN1C(=O)[C@H](CC(C)C)NC(=O)[C@H](Cc1ccc(O)cc1)NC(=O)[C@@H]1CCCN1C(=O)[C@@H]1CCCN1C(=O)[C@H](CCCCN)NC(=O)[C@H](CC(=O)O)NC(=O)[C@@H](N)C(C)C)C(=O)NC(Cc1ccc(O)cc1)C(=O)NC(CC(N)=O)C(=O)NC(CCCNC(=N)N)C(N)=O (stereo partly specified) (H-VDKPPYLPRPRPP[ξR][ξR][ξI][ξY][ξN][ξR]-NH2) |  |  |  |  | 4 (≈ 1.67 µM) |  |  |  | > 1000 |  |  |  | > 64 |  |  |  |  |  | MIC [21]: > 16 µg/mL; MIC [22]: 1 µg/mL (≈ 0.418 µM); MIC [23]: 8 µg/mL (≈ 3.35 µM)
4 | CC[C@H](C)[C@H](NC(=O)[C@H](CCCNC(=N)N)NC(=O)[C@H](CCCNC(=N)N)NC(=O)[C@@H]1CCCN1C(=O)[C@@H]1CCCN1C(=O)[C@H](CCCNC(=N)N)NC(=O)[C@@H]1CCCN1C(=O)[C@H](CCCNC(=N)N)NC(=O)[C@@H]1CCCN1C(=O)[C@H](CC(C)C)NC(=O)[C@H](Cc1ccc(O)cc1)NC(=O)C1CCCN1C(=O)C1CCCN1C(=O)[C@H](CCCCN)NC(=O)[C@H](CC(=O)O)NC(=O)[C@@H](N)C(C)C)C(=O)N[C@@H](Cc1ccc(O)cc1)C(=O)N[C@@H](CC(N)=O)C(=O)N[C@@H](CCCNC(=N)N)C(N)=O (stereo partly specified) (H-VDK[ξP][ξP]YLPRPRPPRRIYNR-NH2) |  |  |  |  |  |  |  | > 64 | > 1000 |  |  |  | > 64 |  |  |  | > 16 | 8 (≈ 3.35 µM) | MIC [22]: 4 µg/mL (≈ 1.67 µM)
5 | CC[C@@H](C)[C@@H](NC(=O)[C@@H](CCCNC(=N)N)NC(=O)[C@H](CCCNC(=N)N)NC(=O)[C@@H]1CCCN1C(=O)[C@@H]1CCCN1C(=O)[C@H](CCCNC(=N)N)NC(=O)[C@@H]1CCCN1C(=O)[C@H](CCCNC(=N)N)NC(=O)[C@@H]1CCCN1C(=O)[C@H](CC(C)C)NC(=O)[C@H](Cc1ccc(O)cc1)NC(=O)[C@@H]1CCCN1C(=O)[C@@H]1CCCN1C(=O)[C@H](CCCCN)NC(=O)[C@H](CC(=O)O)NC(=O)[C@@H](N)C(C)C)C(=O)N[C@H](Cc1ccc(O)cc1)C(=O)N[C@H](CC(N)=O)C(=O)N[C@H](CCCNC(=N)N)C(N)=O (H-VDKPPYLPRPRPPR[dR][dI][dY][dN][dR]-NH2) | Active; Few Membrane Perturbation Observed | Active | Active | Active |  | Active | Active; Few Membrane Perturbation Observed |  | > 1000 | Active | Active |  | > 64 | > 64 | > 64 | > 64 |  |  | Activity [18]: Active
6 | CC[C@H]1OC(=O)[C@H](C)[C@@H](O[C@H]2C[C@@](C)(OC)[C@@H](O)[C@H](C)O2)[C@H](C)[C@@H](O[C@@H]2O[C@H](C)C[C@H](N(C)C)[C@H]2O)[C@](C)(O)C[C@@H](C)CN(C)[C@H](C)[C@@H](O)[C@]1(C)O | Active; Few Membrane Perturbation Observed | Active | Active | Active |  | Active | Active; Few Membrane Perturbation Observed |  |  | Active | Active |  |  |  |  |  |  |  | 
7 | CC[C@H](C)[C@H](NC(=O)[C@H](CCCNC(=N)N)NC(=O)[C@H](CCCNC(=N)N)NC(=O)[C@@H]1CCCN1C(=O)[C@@H]1CCCN1C(=O)[C@H](CCCNC(=N)N)NC(=O)[C@@H]1CCCN1C(=O)[C@H](CCCNC(=N)N)NC(=O)[C@@H]1CCCN1C(=O)[C@H](CC(C)C)NC(=O)[C@H](Cc1ccc(O)cc1)NC(=O)[C@H]1CCCN1C(=O)[C@@H]1CCCN1C(=O)[C@H](CCCCN)NC(=O)[C@H](CC(=O)O)NC(=O)[C@@H](N)C(C)C)C(=O)N[C@@H](Cc1ccc(O)cc1)C(=O)N[C@@H](CC(N)=O)C(=O)N[C@@H](CCCNC(=N)N)C(N)=O (H-VDKP[dP]YLPRPRPPRRIYNR-NH2) |  |  |  |  | > 64 |  |  | > 64 | > 1000 |  |  | > 64 | > 64 |  |  |  | > 16 | > 16 | 
8 | CC[C@H](C)[C@H](NC(=O)[C@H](CCCNC(=N)N)NC(=O)[C@H](CCCNC(=N)N)NC(=O)[C@@H]1CCCN1C(=O)[C@@H]1CCCN1C(=O)[C@H](CCCNC(=N)N)NC(=O)[C@@H]1CCCN1C(=O)[C@H](CCCNC(=N)N)NC(=O)[C@@H]1CCCN1C(=O)[C@H](CC(C)C)NC(=O)[C@H](Cc1ccc(O)cc1)NC(=O)[C@H]1CCCN1C(=O)[C@H]1CCCN1C(=O)[C@H](CCCCN)NC(=O)[C@H](CC(=O)O)NC(=O)[C@@H](N)C(C)C)C(=O)N[C@@H](Cc1ccc(O)cc1)C(=O)N[C@@H](CC(N)=O)C(=O)N[C@@H](CCCNC(=N)N)C(N)=O (H-VDK[dP][dP]YLPRPRPPRRIYNR-NH2) |  |  |  |  | > 64 |  |  | > 64 | > 1000 |  |  | > 64 | > 64 |  |  |  | > 16 | > 16 | MIC [21]: > 64 µg/mL
9 | CC[C@H](C)[C@H](NC(=O)[C@@H](CCCNC(=N)N)NC(=O)[C@H](CCCNC(=N)N)NC(=O)[C@@H]1CCCN1C(=O)[C@@H]1CCCN1C(=O)[C@H](CCCNC(=N)N)NC(=O)[C@@H]1CCCN1C(=O)[C@H](CCCNC(=N)N)NC(=O)[C@@H]1CCCN1C(=O)[C@H](CC(C)C)NC(=O)[C@H](Cc1ccc(O)cc1)NC(=O)[C@@H]1CCCN1C(=O)[C@@H]1CCCN1C(=O)[C@H](CCCCN)NC(=O)[C@H](CC(=O)O)NC(=O)[C@@H](N)C(C)C)C(=O)N[C@@H](Cc1ccc(O)cc1)C(=O)N[C@@H](CC(N)=O)C(=O)N[C@H](CCCNC(=N)N)C(N)=O (H-VDKPPYLPRPRPPR[dR]IYN[dR]-NH2) |  |  |  |  |  |  |  |  | > 1000 |  |  |  | > 64 | > 64 | > 64 | > 32 |  |  | MIC [16]: > 32 µg/mL; MIC [19]: > 32 µg/mL
